Measured values taken from US9481719B2, “Recombinant production of peptides” (BASF SE, priority 2009, dated 2016).
No end group written: not given here.

Columns and labels:
[1] = system: Bacillus subtilis; conditions: compared to the starting fusion; cited from earlier work
[2] = system: Escherichia coli; conditions: compared to the starting fusion; cited from earlier work
[3] = system: E. coli B; assay: Growth inhibition of E. coli B cultures in LB medium (optical density after 24 h); type: cell-based
Procedure: Bacterial growth was monitored by measuring the optical density after 24 h. […] For this, said carboxyl groups were activated with 1-ethyl-3-(3-dimethylaminopropyl)carbodiimide hydrochloride and N-hydroxy-sulfosuccinimide, and amidated by subsequent addition of ammonia.

Substance: KWKLFKKIPKFLHLAKKF (P18 Peptide) [SEQ ID NO:6, cecropin A-magainin 2 fusion peptide development described by Shin et al. 1999]
- antibacterial activity with respect to Bacillus subtilis [1]: not adversely affected
- antibacterial activity with respect to Escherichia coli [2]: not adversely affected

Substance: PGKWKLFKKIPKFLHLAKKFG (P18 Peptide) [antimicrobial peptide released by acidic cleavage from a recombinant repetitive precursor protein]
- peptide concentration for complete inhibition of growth (optical density at 600 nm after 24 h<0.15) ([3]; E. coli B in LB medium, starting optical density 0.1 at 600 nm, shaking at 37° C., 24 h): ≥ 31 ppm

Substance: amidated P18 peptide: P18 peptide (SEQ ID NO: 23) whose C-terminal carboxyl group is amidated (PGKWKLFKKIPKFLHLAKKFG-NH2)
- antimicrobial activity after amidating the C-terminal carboxyl group, relative to non-amidated P18 ([3]; C-terminal carboxyl group amidated (EDC / N-hydroxy-sulfosuccinimide, ammonia)): improve the antimicrobial activity further
